“Also recorded” adds a separate entry of the source. Blank lines part the entries; values can stand above or below the compound they belong to.
Key:
recombinant AtNCED3 = target: T1, recombinant AtNCED3 (Arabidopsis thaliana, UniProt Q9LRR7); assay: Recombinant AtNCED3 in vitro enzyme assay (HPLC, cleavage of 9-cis-neoxanthin); type: biochemical; conditions: for relative inhibition of AtNCED3 activity (in words): in vitro enzyme assay, 1 mM concentration (FIG. 5); for Ki: Dixon plot, competitive inhibition, 0-250 μM inhibitor, 9-cis-neoxanthin at 50 (55), 30 and 10 μM
T1 construct: glutathione-S-transferase (GST) (C); made in house; host or cells: E. coli BL21(DE3), pRL296 vector
T1 sequence (Q9LRR7 41-599): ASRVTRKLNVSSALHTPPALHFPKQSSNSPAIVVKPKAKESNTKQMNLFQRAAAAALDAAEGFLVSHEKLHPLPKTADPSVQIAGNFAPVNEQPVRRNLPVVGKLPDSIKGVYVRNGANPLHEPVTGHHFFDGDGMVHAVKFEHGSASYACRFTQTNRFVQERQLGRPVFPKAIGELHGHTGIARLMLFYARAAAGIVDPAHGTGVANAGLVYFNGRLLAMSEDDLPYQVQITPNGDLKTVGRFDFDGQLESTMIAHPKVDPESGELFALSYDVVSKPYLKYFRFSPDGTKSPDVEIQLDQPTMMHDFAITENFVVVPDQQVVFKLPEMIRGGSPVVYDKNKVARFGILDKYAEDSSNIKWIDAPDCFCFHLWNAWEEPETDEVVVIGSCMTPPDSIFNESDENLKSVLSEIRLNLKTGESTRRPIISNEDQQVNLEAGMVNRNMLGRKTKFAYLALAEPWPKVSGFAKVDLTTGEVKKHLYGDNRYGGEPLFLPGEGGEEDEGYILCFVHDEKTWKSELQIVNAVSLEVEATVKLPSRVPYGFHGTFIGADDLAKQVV
Excerpt: Fresh spinach was macerated under liquid nitrogen and extracted five times with three volumes of methanol/0.1% KOH. Samples were dried using a roto-evaporator, resuspended in acetone and then chilled on ice for one hour. The solvent was subsequently transferred to a new flask, roto-evaporated and resuspended in acetonitrile/acetone (1:1) mixture. The mixture was applied to a gravity flow column containing C-18 silica gel (Sigma) equilibrated in 65% acetonitrile/35% water (solvent C). The column was washed with 49% acetone (solvent D)/51% solvent A and 20 mL of 55% solvent D/45% solvent A while collecting 5 mL fractions. Fractions containing neoxanthin were pooled, dried, and resuspended in 100 μL of methanol. The pooled mixture was separated using an Agilent 1100 series HPLC and a Supelcosil™ LC-18 (25 cm×10 mm, 5 m) (Supelco) column equilibrated with solvent A. The HPLC method consisted of a linear gradient over 30 minutes from 100% solvent A to 100% solvent D with a flow rate of 4 mL/minute at 22° C. and monitored with a PDA detector at 436 nm. The neoxanthin fractions were collected, dried and resuspended in ethanol. Neoxanthin was quantified by determining its OD439 using a PerkinElmer Lambda 35 UV/VIS Spectrometer and applying its extinction coefficient of 2243 (A^1%1cm).^30
AtNCED3 was over-expressed using the pRL296 expression vector (a gift from M. Cygler, BRI, Montreal) in E. coli (BL21)DE3 cells as a glutathione-S-transferase fusion protein and affinity purified using glutathione sepharose 4 fast flow resin (GE Healthcare) as described previously.^35 Essentially, cells were grown to an OD600 of 0.45 at 37° C. and 200 rpm shaking. The culture was induced with 1 mM isopropyl-β-d-thiogalactoside for 16 h at 15° C. and 200 rpm shaking. The cells were pelleted and resuspended in 50 mM Tris-HCl (pH 8.0) 1 mM DTT and 0.5% protease inhibitor cocktail set III (CalBiochem). Cells were lysed using a french press at 20,000 psi and affinity purified as per manufacturer's instructions (GE Healthcare). Protein concentration was determined by the method of Bradford.^36
Enzymatic assays contained 100 mM Bis-Tris (pH 6.7), […], 10 mM ascorbate, 0.05% Triton™ X-100, catalase (1 mg/mL), neoxanthin and inhibitor to a total volume of 5 L of ethanol and 8 g AtNCED3 to a total assay volume of 100 L. Assays were incubated at 22° C. for 20 min. The assays were stopped with the addition of 50 L of 25% Triton™ X-100 and extracted with 150 L of ethyl acetate. All procedures were performed under red-light to minimize photo-induced damage to assay components and products.^6 Fine chemicals and solvents were purchased from Sigma-Aldrich. 75 μL of the assay extract was injected into an Agilent 1100 series HPLC machine equipped with a Supelcosil™ LC-18 (3.3 cm×4.6 mm, 3 m) (Supelco) column pre-equilibrated with 15% acetonitrile (solvent B)/85% water (solvent A). Solvent B increased to 35% over ten minutes, followed by a linear gradient of 65% solvent B to 100% solvent D over 10 minutes. Solvent D was maintained at 100% for 2 minutes and then the column was returned to 15% solvent B for 5 min. The flow rate was maintained at 1.5 mL/min. and monitored with a photodiode array (PDA) detector at 436 and 262 nm.
Evaluation of recombinant AtNCED3 kinetic parameters for Km was accomplished using Michaelis-Menten equation plotted with EnzFitter™ v2.0.18.0 (Biosoft). The Ki for inhibitors was determined using a Dixon plot and concentration ranges of 250, 200, 150, 100, 50 and 0 μM inhibitor in the presence of either 55, 30 or 10 μM 9-cis-neoxanthin 2.^5

[1] = tested on: Arabidopsis thaliana Col-0 seeds; assay: Seed germination assay; type: in vivo
Experimental: Arabidopsis thaliana Col-0 seeds were sterilized by washing them with 10% sodium hypochlorite and 20% sodium dodecyl sulfate (Sigma) for five minutes and then rinsing four times with sterile water. Seeds were moist chilled for 4 days and then plated on germination medium (0.41% MS salts, 1% sucrose, 0.05% MES and 0.1% Gamborg's vitamins, pH 5.7, 0.7% agar) (Sigma) containing either 0.1, 0.33, 1.0 or 3.33 μM of inhibitor or (+)-ABA 1. As a control, seeds were sewn and germinated on media only without inhibitors or (+)-ABA 1. Germination was recorded over seven days and indexes calculated as described previously.^40

[2] = tested on: ABA and catabolites in Arabidopsis thaliana Col-0 plants; assay: Total ABA metabolite levels in mannitol stressed plants treated with SLCCD inhibitors; type: in vivo; conditions: 33 μM inhibitor, mannitol stress, first 6 hours
Experimental: For each condition to be tested, three hundred wild-type Arabidopsis thaliana Col-0 seeds (LEHLE) were sterilized, vernalized and sewn onto 200 mL of Sunshine Mix #3 (Sun Gro) potting material in an 8×8×4 cm pot. Plants were watered continuously with 25 g/100 mL of 20-20-20 (PlantProd™) fertilizer and grown at 22° C. with a 16 hour photoperiod for 22 days. Plants were pre-treated with 50 mL/pot of Buffer A (10 mM HEPES pH 6.5) (Sigma)+/−10 or 33 μM test compound for 2 hours. Plants were then soaked with 50 mL/pot of Buffer A containing 0.4 M mannitol (Sigma)+/−10 or 33 μM test compound. Non-treated/non-stressed control plants were simply soaked in Buffer A at the designated time points. […] Half of the tissue samples were lyophilized for metabolite profiling and the other half taken for quantitative reverse-transcription polymerase chain reaction (qRT-PCR) analysis.
Freeze-dried tissue was homogenized using a multi-tube ball mill (Mini-BeadBeater-96™, Biospec Products Inc., Bartlesville, Okla., USA) and 50 mg of each sample was weighed out into individual Falcon tubes. To each sample, 100 μL of a cocktail of internal standards comprised of (−)-5,8′,8′,8′-d4-ABA, (−)-7′,7′,7′-d3-PA, (−)-5,8′,8′,8′-d4-7′OH ABA, (−)-7′,7′,7′-d3-DPA and (+)-4,5,8′,8′,8′-d5-ABAGE, each at a concentration of 0.2 ng/μL and dissolved in a mixture of water:acetonitrile (1:1, v/v) with 0.5% glacial acetic acid, was added. Further, 3 mL of isopropanol:water:glacial acetic acid (80:19:1, v/v/v) extraction solvent was added, and samples were placed in the fridge (4° C., in the dark) on an orbital shaker at about 350 rpm. After 18-24 hours, the samples were centrifuged at 4.4 krpm for 10 min, the supernatant was transferred to a disposable culture tube, and a second portion of 500 μL extraction solvent mixture was added to wash the pellet. After vortexing and centrifuging again at 4.4 krpm for 10 min, each wash was combined with its appropriate supernatant. The organic extract was dried under reduced pressure, then re-dissolved in 100 μL methanol:glacial acetic acid (99:1, v/v) followed by 900 μL of aqueous 1% glacial acetic acid. This mixture was extracted with 2 mL hexane, and then the aqueous layer was dried down under reduced pressure. The sample was further reconstituted in 2 mL aqueous 1% glacial acetic acid and loaded onto an Oasis MCX SPE cartridge (3 cc, Waters Corporation, Mississauga, Ontario, Canada). After a wash with 3 mL aqueous 1% glacial acetic acid, samples were eluted with 1 mL methanol:glacial acetic acid (99:1, v/v) and then dried down under reduced pressure. The extract was re-dissolved in 100 μL methanol:glacial acetic acid (99:1, v/v) followed by 900 μL of aqueous 1% glacial acetic acid. This mixture was further cleaned on an Oasis HLB SPE cartridge (1 cc, Waters Corporation, Mississauga, Ontario, Canada). After a wash with 1 mL aqueous 1% glacial acetic acid, the fraction containing ABA and ABA metabolites was eluted with 1 mL acetonitrile:water:glacial acetic acid (30:69:1, v/v/v) and then was evaporated to dryness. The final residue was dissolved in 200 μL of acetonitrile:water (15:85, v/v) containing 0.1% glacial acetic acid and 100 pg/μL (±)-3′,5′,5′,7′,7′,7′-d6-ABA as a recovery standard. Finally, the sample was subjected to LC-ES-MS/MS analysis and quantification, as described in Owen and Abrams, 2008.^39

[3] = tested on: ABA metabolite accumulation; conditions: background, references 17, 18; cited from earlier work
cowpea NCED enzyme = conditions: background, references 17, 18; read-out: Ki, competitive inhibition of cowpea NCED enzyme; cited from earlier work

Compound: CC1=CC(=O)CC(C)(C)C1(O)/C=C/C(C)=C\C(=O)O (single isomer, unassigned; (+)) [(+)-ABA 1, Abscisic acid, reference compound]
reduction of seed germination ([1]; 0.33 μM in germination medium): 47% | reduction of seed germination ([1]; 1 μM in germination medium): 61% | reduction of seed germination ([1]; highest concentration tested (3.33 μM)): 96%

Compound: CCSC/C=C(/C)C#C[C@]1(O)[C@H](C)CC(=O)CC1(C)C [Compound 11, (4S,5R)-(3′Z)-4-(5′-(Ethylthio)-3′-methylpent-3′-en-1′-ynyl)-4-hydroxy-3,3,5-trimethylcyclohexanone]
relative inhibition of AtNCED3 activity (in words) (recombinant AtNCED3): reduced activity

Compound: CCSC/C=C(/C)C#C[C@@]1(O)[C@@H](C)CC(=O)CC1(C)C [Compound 12, (4R,5S)-(3′Z)-4-(5′-(Ethylthio)-3′-methylpent-3′-en-1′-ynyl)-4-hydroxy-3,3,5-trimethylcyclohexanone]
relative inhibition of AtNCED3 activity (in words) (recombinant AtNCED3): completely inhibited; also recorded: inhibited the enzyme as strongly as the more xanthoxin-like compounds

Now from value to compound, other results behind:

Km (recombinant AtNCED3; cleavage of 9-cis-neoxanthin 2 by recombinant AtNCED3, Michaelis-Menten plot): 24 µM
Compound: CC(=C/C=C/C(C)=C/C=C/C=C(C)/C=C/C=C(\C)C=C=C1C(C)(C)C[C@H](O)C[C@@]1(C)O)/C=C/[C@@]12O[C@]1(C)C[C@@H](O)CC2(C)C (relative stereo) [compound 2, 9-cis-Neoxanthin, reference compound]

relative inhibition of AtNCED3 activity (in words) (recombinant AtNCED3): did not afford greater activity
Compound: CCSC/C=C(/C)C#C[C@]1(O)[C@H](C)C[C@@H](O)CC1(C)C [Compound 14, (1S,4R,6R)-(3′Z)-1-(5′-(Ethylthio)-3′-methylpent-3′-en-1′-ynyl)-2,2,6-trimethylcyclohexane-1,4-diol]

relative inhibition of AtNCED3 activity (in words) (recombinant AtNCED3): did not afford greater activity
Compound: CCSC/C=C(/C)C#C[C@@]1(O)[C@H](C)C[C@@H](O)CC1(C)C [Compound 15, (1R,4R,6R)-(3′Z)-1-(5′-(Ethylthio)-3′-methylpent-3′-en-1′-ynyl)-2,2,6-trimethylcyclohexane-1,4-diol]

Ki (recombinant AtNCED3): 132 µM
Compound: COC(=O)CN(C/C=C/c1ccc(OC)c(OC)c1)Cc1ccc(F)cc1 [compound 9, Abamine, reference compound]
levels of ABA and catabolites at first time point (in words) [2]: higher levels of ABA and catabolites at the first time point | reduction of ABA metabolite accumulation [3]: 35% | Ki (cowpea NCED enzyme): 18.5 µM

Ki (recombinant AtNCED3): 86 µM
Compound: Abamine SG [compound 10]
reduction of ABA metabolite accumulation [3]: 77% | Ki (cowpea NCED enzyme): 38.8 µM

Source: patent publication US8283481B2, “Inhibitors of a 9-cis epoxycarotenoid dioxygenase” (National Research Council of Canada, priority 2008, dated 2012)
